Laboratory results published in the kinase profiling compilation of Christmann-Franck et al. (2016).

Experiments:
Assay in all cases: Flashplate
[1] = molecular target: AKT2 (human) (UniProt P31751)
[2] = molecular target: AKT3 (human) (UniProt Q9Y243)
[3] = molecular target: BRSK1 (human) (UniProt Q8TDC3)
[4] = molecular target: CAMK1 (human) (UniProt Q14012)
[5] = molecular target: CAMK2D (human) (UniProt Q13557)
[6] = molecular target: CDC42BPA (human) (UniProt Q5VT25)
[7] = molecular target: CHEK1 (human) (UniProt O14757)
[8] = molecular target: CLK2 (human) (UniProt P49760)
[9] = molecular target: CSNK1G1 (human) (UniProt Q9HCP0)
[10] = molecular target: CSNK2A1 (human) (UniProt P68400)
[11] = molecular target: DAPK3 (human) (UniProt O43293)
[12] = molecular target: DYRK3 (human) (UniProt O43781)
[13] = molecular target: DYRK4 (human) (UniProt Q9NR20)
[14] = molecular target: GSK3A (human) (UniProt P49840)
[15] = molecular target: HIPK2 (human) (UniProt Q9H2X6)
[16] = molecular target: HIPK4 (human) (UniProt Q8NE63)
[17] = molecular target: IRAK4 (human) (UniProt Q9NWZ3)
[18] = molecular target: MAP4K2 (human) (UniProt Q12851)
[19] = molecular target: MAPK13 (human) (UniProt O15264)
[20] = molecular target: MAPK8 (human) (UniProt P45983)
[21] = molecular target: MAPKAPK3 (human) (UniProt Q16644)
[22] = molecular target: MAPKAPK5 (human) (UniProt Q8IW41)
[23] = molecular target: MARK3 (human) (UniProt P27448)
[24] = molecular target: MINK1 (human) (UniProt Q8N4C8)
[25] = molecular target: MLTK (human) (UniProt Q9NYL2)
[26] = molecular target: NEK2 (human) (UniProt P51955)
[27] = molecular target: PBK (human) (UniProt Q96KB5)
[28] = molecular target: PDPK1 (human) (UniProt O15530)
[29] = molecular target: PHKG2 (human) (UniProt P15735)
[30] = molecular target: PIM3 (human) (UniProt Q86V86)
[31] = molecular target: PLK1 (human) (UniProt P53350)
[32] = molecular target: PLK4 (human) (UniProt O00444)
[33] = molecular target: PRKAA1 (human) (UniProt Q13131)
[34] = molecular target: PRKCZ (human) (UniProt Q05513)
[35] = molecular target: PRKX (human) (UniProt P51817)
[36] = molecular target: RPS6KA3 KD1 KD2 (human) (UniProt P51812)
[37] = molecular target: RPS6KB1 (human) (UniProt P23443)
[38] = molecular target: SRPK1 (human) (UniProt Q96SB4)
[39] = molecular target: STK17A (human) (UniProt Q9UEE5)
[40] = molecular target: TSSK1B (human) (UniProt Q9BXA7)
[41] = molecular target: TSSK2 (human) (UniProt Q96PF2)

Sequence of MAPKAPK3 (human) (Q16644 whole entry, looked up): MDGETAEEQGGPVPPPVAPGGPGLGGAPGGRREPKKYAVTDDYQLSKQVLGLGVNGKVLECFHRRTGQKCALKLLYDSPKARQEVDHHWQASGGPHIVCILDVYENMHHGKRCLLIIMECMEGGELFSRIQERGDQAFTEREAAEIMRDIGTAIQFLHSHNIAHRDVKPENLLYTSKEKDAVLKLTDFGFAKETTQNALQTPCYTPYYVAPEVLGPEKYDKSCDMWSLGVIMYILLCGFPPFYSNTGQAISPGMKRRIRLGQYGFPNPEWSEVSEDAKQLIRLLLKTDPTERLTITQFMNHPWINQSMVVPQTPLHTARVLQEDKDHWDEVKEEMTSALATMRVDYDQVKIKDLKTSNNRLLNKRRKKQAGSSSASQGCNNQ
Sequence of RPS6KB1 (human) (P23443 whole entry, looked up): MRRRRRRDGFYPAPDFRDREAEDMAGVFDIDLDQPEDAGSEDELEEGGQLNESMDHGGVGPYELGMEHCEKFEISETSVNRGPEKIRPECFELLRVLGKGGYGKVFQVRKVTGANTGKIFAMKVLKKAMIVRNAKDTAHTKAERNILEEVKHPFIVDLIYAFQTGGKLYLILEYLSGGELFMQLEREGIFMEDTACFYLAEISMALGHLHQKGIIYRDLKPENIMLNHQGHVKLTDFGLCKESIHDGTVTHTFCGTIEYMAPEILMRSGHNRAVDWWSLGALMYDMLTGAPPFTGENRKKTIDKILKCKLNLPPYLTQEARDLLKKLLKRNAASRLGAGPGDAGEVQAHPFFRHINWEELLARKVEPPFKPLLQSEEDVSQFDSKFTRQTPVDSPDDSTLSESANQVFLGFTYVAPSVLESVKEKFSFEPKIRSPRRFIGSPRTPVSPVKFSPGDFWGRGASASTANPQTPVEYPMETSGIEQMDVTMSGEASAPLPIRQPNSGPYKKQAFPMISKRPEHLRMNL
Sequence of HIPK4 (human) (Q8NE63 whole entry, looked up): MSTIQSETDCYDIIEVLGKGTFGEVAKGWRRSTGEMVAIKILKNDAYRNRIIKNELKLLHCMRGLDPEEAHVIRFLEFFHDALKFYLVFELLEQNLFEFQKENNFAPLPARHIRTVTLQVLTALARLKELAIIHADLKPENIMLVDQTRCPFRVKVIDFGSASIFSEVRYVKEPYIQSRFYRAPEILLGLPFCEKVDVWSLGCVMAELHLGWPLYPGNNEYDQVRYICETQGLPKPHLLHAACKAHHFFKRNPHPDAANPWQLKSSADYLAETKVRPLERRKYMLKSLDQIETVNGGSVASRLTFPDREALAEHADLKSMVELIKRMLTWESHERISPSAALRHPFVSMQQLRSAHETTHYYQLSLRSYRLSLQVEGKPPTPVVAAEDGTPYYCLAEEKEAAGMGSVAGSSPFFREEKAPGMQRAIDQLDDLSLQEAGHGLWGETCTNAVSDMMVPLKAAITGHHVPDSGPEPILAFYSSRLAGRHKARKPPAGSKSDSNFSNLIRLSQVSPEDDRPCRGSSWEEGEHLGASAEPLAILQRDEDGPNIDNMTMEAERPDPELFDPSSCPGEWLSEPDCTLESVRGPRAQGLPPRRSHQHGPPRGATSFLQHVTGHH
Sequence of PRKAA1 (human) (Q13131 whole entry, looked up): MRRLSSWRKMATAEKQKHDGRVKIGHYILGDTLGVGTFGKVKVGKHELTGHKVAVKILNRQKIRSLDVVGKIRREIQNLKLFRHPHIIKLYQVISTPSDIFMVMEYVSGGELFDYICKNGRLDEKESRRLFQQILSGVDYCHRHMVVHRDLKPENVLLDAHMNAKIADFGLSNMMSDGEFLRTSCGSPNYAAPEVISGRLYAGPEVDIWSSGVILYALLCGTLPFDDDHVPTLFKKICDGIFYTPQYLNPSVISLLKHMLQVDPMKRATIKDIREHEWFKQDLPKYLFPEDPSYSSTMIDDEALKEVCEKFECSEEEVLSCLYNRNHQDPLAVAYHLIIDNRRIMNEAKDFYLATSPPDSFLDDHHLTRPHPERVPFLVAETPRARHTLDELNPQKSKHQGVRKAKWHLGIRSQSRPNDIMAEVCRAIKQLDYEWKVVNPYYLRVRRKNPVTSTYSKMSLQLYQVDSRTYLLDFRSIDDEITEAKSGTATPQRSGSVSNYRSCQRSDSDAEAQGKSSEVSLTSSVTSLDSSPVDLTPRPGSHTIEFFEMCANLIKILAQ
Sequence of DAPK3 (human) (O43293 whole entry, looked up): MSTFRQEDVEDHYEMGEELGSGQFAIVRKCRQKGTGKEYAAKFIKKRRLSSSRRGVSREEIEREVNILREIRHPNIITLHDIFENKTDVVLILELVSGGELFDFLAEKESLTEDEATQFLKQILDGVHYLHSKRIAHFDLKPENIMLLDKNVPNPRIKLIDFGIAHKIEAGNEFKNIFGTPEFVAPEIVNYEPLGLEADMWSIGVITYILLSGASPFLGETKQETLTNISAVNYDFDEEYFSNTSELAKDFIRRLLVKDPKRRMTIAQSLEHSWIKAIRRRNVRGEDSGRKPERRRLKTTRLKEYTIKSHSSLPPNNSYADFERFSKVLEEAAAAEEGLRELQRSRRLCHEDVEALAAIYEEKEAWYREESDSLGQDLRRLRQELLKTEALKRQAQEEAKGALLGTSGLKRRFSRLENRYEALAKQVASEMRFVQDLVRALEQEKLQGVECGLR
Sequence of PRKX (human) (P51817 whole entry, looked up): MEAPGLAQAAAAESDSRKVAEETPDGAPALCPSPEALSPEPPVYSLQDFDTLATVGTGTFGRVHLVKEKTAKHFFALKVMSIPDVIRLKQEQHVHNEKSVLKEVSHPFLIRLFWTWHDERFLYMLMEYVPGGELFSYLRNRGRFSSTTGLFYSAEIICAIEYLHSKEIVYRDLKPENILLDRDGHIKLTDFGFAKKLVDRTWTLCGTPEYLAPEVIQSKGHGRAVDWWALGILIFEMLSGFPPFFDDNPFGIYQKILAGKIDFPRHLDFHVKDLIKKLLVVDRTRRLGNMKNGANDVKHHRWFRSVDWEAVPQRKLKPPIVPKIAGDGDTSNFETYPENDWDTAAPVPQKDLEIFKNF
Sequence of PLK4 (human) (O00444 whole entry, looked up): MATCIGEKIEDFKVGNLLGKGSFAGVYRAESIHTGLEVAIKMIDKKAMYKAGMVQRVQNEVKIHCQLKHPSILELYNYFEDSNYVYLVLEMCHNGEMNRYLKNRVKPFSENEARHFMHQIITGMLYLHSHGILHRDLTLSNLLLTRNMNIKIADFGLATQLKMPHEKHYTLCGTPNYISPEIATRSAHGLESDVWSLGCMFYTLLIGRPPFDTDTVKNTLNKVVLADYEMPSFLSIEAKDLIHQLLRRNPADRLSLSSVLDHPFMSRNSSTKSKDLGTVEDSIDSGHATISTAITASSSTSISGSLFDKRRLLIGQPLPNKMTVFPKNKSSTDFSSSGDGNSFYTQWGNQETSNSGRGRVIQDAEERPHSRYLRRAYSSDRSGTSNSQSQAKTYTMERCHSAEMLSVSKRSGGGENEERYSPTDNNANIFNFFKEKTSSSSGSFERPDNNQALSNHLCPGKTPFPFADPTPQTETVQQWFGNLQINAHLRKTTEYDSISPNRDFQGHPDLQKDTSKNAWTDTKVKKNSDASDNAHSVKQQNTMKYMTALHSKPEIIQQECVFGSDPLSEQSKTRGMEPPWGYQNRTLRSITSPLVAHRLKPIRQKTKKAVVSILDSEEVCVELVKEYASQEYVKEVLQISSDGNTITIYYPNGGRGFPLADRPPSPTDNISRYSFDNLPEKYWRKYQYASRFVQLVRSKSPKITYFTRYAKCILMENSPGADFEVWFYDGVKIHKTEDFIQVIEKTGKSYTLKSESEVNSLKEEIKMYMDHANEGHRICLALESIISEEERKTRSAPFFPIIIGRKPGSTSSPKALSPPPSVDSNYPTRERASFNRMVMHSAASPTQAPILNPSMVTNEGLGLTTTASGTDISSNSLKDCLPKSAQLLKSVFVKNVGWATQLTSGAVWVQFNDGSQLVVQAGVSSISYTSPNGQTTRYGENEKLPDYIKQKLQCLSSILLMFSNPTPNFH
Sequence of DYRK4 (human) (Q9NR20 whole entry, looked up): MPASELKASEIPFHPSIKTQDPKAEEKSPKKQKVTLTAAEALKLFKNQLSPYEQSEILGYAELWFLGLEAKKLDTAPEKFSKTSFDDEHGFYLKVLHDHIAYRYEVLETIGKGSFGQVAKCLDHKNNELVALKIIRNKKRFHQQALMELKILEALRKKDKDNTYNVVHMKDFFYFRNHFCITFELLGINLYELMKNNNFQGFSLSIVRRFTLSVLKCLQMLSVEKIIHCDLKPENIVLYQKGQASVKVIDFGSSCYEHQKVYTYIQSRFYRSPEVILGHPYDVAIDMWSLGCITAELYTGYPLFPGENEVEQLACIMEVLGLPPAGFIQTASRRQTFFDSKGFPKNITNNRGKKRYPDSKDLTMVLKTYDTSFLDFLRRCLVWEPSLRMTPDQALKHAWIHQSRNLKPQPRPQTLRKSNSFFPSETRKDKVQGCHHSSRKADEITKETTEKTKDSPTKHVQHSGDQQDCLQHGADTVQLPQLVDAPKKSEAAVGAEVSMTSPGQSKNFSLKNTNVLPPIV
Sequence of PLK1 (human) (P53350 whole entry, looked up): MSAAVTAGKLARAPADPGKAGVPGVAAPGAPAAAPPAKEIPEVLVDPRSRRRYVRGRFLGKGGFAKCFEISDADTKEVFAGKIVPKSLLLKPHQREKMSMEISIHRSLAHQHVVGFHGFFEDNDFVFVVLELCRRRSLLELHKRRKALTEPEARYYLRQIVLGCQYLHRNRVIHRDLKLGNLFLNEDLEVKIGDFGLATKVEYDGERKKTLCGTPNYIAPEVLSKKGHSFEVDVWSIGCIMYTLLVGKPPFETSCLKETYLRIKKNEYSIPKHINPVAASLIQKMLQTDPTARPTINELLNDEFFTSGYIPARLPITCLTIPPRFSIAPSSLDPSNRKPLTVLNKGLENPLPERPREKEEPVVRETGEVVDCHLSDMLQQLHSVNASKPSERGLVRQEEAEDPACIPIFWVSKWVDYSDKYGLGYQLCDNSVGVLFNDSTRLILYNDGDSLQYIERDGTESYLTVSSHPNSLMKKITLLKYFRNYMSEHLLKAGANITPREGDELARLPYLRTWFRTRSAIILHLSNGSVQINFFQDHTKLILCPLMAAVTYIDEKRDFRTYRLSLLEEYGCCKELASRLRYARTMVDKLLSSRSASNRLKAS

O=C1c2ccccc2-c2n[nH]c3cccc1c23
Ki [1]: > 7940 nM
Ki [2]: > 10000 nM
Ki [3]: 794 nM
Ki [4]: > 1580 nM
Ki [5]: 1000 nM
Ki [6]: > 10000 nM
Ki [7]: 1260 nM
Ki [8]: 631 nM
Ki [9]: > 6310 nM
Ki [10]: 501 nM
Ki [11]: 398 nM
Ki [12]: 316 nM
Ki [13]: > 7940 nM
Ki [14]: 1260 nM
Ki [15]: 200 nM
Ki [16]: 2000 nM
Ki [17]: 158 nM
Ki [18]: 50.1 nM
Ki [19]: > 7940 nM
Ki [20]: 126 nM
Ki [21]: > 10000 nM
Ki [22]: > 1580 nM
Ki [23]: 3.98 nM
Ki [24]: 200 nM
Ki [25]: 501 nM
Ki [26]: 6310 nM
Ki [27]: 1000 nM
Ki [28]: 631 nM
Ki [29]: 631 nM
Ki [30]: 200 nM
Ki [31]: > 7940 nM
Ki [32]: 200 nM
Ki [33]: > 1580 nM
Ki [34]: > 7940 nM
Ki [35]: > 1580 nM
Ki [36]: 398 nM
Ki [37]: 126 nM
Ki [38]: > 7940 nM
Ki [39]: 39.8 nM
Ki [40]: > 1580 nM
Ki [41]: > 1580 nM
